# In US10073084B2, “Predicting allergic reactions” (priority 2010, dated 2018):
# Entries after “also recorded” stand apart in the source; their conditions may differ. Like-named read-outs stand apart in the source and are kept apart here.
# Tests used:
# [1] = system: IFN-γ; assay: IFN-γ levels in supernatant of drug treated FastDC co-cultured with autologous cells (FACs); format: cell-based, human; conditions: for levels of IFN-γ (in words): FIG. 9
# [2] = system: autologous T cells; assay: Modified T cell proliferation assay ([3H] thymidine), drug treated FastDC + autologous T cells; format: cell-based, human
# [3] = system: skin biopsy from the same donor; assay: Skin explant assay: histological damage grade, compound-treated DC + autologous T cells + autologous skin; conditions: for Total positive: positive (Grade II-IV) explants / explants tested; for Grade I (number of skin explants with this histological grade): Grade I = negative; for Skin Explant Result (grade observed): Table 3
# [4] = from publicly available www.sens-it-iv website; cited from earlier work
# [5] = system: allogeneic T cells; assay: T cell proliferation assay ([3H]-Thymidine), treated DC with allogeneic T cells (Example 3); format: cell-based, human; conditions: FIG. 7C
# [6] = system: CD86, CD83 and HLA-DR; assay: Flow cytometric analysis of surface markers on treated monocyte-derived dendritic cells; format: cell-based, human; conditions: after 24 hours of treatment, non-sensitizers compared with control cells
# [7] = system: cAMP-responsive element modulator (CREM); assay: Real-time RT-PCR gene expression in treated dendritic cells: CREM; format: cell-based, human; conditions: 3, 6, 11 and 24 h, single donor, FIG. 6
# [8] = system: chemokine (C-C motif) receptor 2 (CCR2); assay: Real-time RT-PCR gene expression in treated dendritic cells: CCR2; format: cell-based, human; conditions: 3, 6, 11 and 24 h, single donor, FIG. 6
# [9] = system: skin biopsy from the same donor
# [10] = system: autologous T cells; assay: T cell proliferation assay ([3H]-Thymidine), treated DC with autologous T cells (Example 3); format: cell-based, human
# [11] = FIG. 8 / FIG. 10, FastDC treated 24 hours, five days co-culture
# [12] = Table 2, concentrations of Table 1
# [13] = Table 2, concentrations of Table 1, positive grade
molecule,measurement,setting,value
"OCC(O)CO [Gly, Glycerol]",IFNγ Mean,[1]; Table 3,144.28
same,autologous T cell proliferation (level in words),[2]; [11],low
same,Total positive,[3]; Table 2,1/4
"CN(C)C=O [DMT, Dimethyl formamide]",IFNγ Mean,[1]; Table 3,158.59
same,autologous T cell proliferation (level in words),[2]; [11],low
same,Grade I (number of skin explants with this histological grade),[3]; [12],3
same,Total positive,[3]; Table 2,0/3
same,Skin Explant Result (grade observed),[3],Grade I
"CCC(C)(C)C(=O)O[C@H]1C[C@@H](C)C=C2C=C[C@H](C)[C@H](CC[C@@H]3C[C@@H](O)CC(=O)O3)[C@H]21 [SimV, Simvastatin]",Grade I (number of skin explants with this histological grade),[3]; [12],2
same,Grade III (number of skin explants with this histological grade),[3]; [13],1
same,Total positive,[3]; Table 2,1/3
Penicillin,IFNγ Mean,[1]; Table 3,549.25
same,LLNA Class,[4],Weak
same,Grade II (number of skin explants with this histological grade),[3]; [13],1
same,Grade III (number of skin explants with this histological grade),[3]; [13],3
same,Total positive,[3]; Table 2,4/4
same,Skin Explant Result (grade observed),[3]; listed as Penicillin G,Grade III; also recorded: Grade II
Triton-X-100,IFNγ Mean,[1]; Table 3,33.54
same,autologous T cell proliferation (level in words),[2]; [11],low
same,level of incorporation of [3H]-Thymidine,[5],"approximately 100,000 CPM"
same,"expression of the markers CD86, CD83 and HLA-DR",[6],increase in expression
same,"CREM expression, logarithmic fold change (LFC)",[7],up-regulated for each time point
same,"CCR2 expression, logarithmic fold change (LFC)",[8],down-regulated after each time period
same,Grade I (number of skin explants with this histological grade),[9],4
same,Skin Explant Result (grade observed),[9],Grade I
same,Total positive,[9],0/4
"CN(C)C(=N)N=C(N)N [Met, Metformin]",levels of IFN-γ (in words),[1],low
same,autologous T cell proliferation (level in words),[2]; [11],low
same,Grade I (number of skin explants with this histological grade),[3]; [12],2
same,Total positive,[3]; Table 2,0/2
"C[S+](C)[O-] [DMSO, Dimethyl sulfoxide]",autologous T cell proliferation (level in words),[2]; [11],low
same,Grade I (number of skin explants with this histological grade),[3]; [12],2
same,Grade II (number of skin explants with this histological grade),[3]; [13],1
same,Total positive,[3]; Table 2,1/3
same,Skin Explant Result (grade observed),[3],Grade I; also recorded: Grade II
"CC(C)O [IP, Isopropanol]",IFNγ Mean,[1]; Table 3,207.26
same,autologous T cell proliferation (level in words),[2]; [11],low
same,Total positive,[3]; Table 2,0/5
"CC1(C)S[C@@H]2[C@H](NC(=O)[C@H](N)c3ccc(O)cc3)C(=O)N2[C@H]1C(=O)O [Amoxo, Amoxicillin]",Grade IV (number of skin explants with this histological grade),[9],1
same,Total positive,[9],4/5
C=CCc1ccc(O)c(OC)c1 [Eugenol],IFNγ Mean,[1]; Table 3,425.66
same,T cell proliferation response versus SDS-treated DC,"[10]; summary statement, T cell source not stated, not reproducible",Two-fold
same,[3H]-Thymidine count relative to SDS and Triton X-100,"[10]; treated DC with autologous T cells, FIG. 7B",two-fold
same,difference in counts per minute (CPM) versus SDS,[5],greater than two-fold
same,"expression of the markers CD86, CD83 and HLA-DR",[6],reduced peak of expression
same,"CREM expression, logarithmic fold change (LFC)",[7],up-regulated until 24 hours when it becomes down-regulated
same,"CCR2 expression, logarithmic fold change (LFC)",[8],down-regulated from 3-11 hours and then is up-regulated at 24 hours
same,Grade IV (number of skin explants with this histological grade),"[9]; human, 3 days",1
same,Total positive,"[9]; human, 3 days",5/5
"CCCCCCCCCCCCOS(=O)(=O)[O-].[Na+] [SDS, Sodium Dodecyl Sulfate]",IFNγ Mean,[1]; Table 3,80.33
same,autologous T cell proliferation (level in words),[2]; [11],low
same,"expression of the markers CD86, CD83 and HLA-DR",[6],increase in expression
same,"CREM expression, logarithmic fold change (LFC)",[7],~0
same,"CCR2 expression, logarithmic fold change (LFC)",[8],flipping from a down-regulation to an up-regulation
same,Total positive,[9]; human,3/6
"Sc1nc2ccccc2s1 [2Mercp, 2-mercaptobenzothiazole]",IFNγ Mean,[1]; Table 3,628.81
same,LLNA Class,[4],Moderate
same,Grade I (number of skin explants with this histological grade),[3]; [12],1
same,Grade II (number of skin explants with this histological grade),[3]; [13],1
same,Grade III (number of skin explants with this histological grade),[3]; [13],2
same,Total positive,[3]; Table 2,3/4
"CN(Cc1cnc2nc(N)nc(N)c2n1)c1ccc(C(=O)N[C@@H](CCC(=O)O)C(=O)O)cc1 [MTX, Methotrexate]",levels of IFN-γ (in words),[1],low
same,autologous T cell proliferation (level in words),[2]; [11],low
same,Grade I (number of skin explants with this histological grade),[3]; [12],1
same,Total positive,[3]; Table 2,0/1′
"O=CC=Cc1ccccc1 [CINN, Cinnamaldehyde]",IFNγ Mean,[1]; Table 3,227.76
same,Grade I (number of skin explants with this histological grade),"[9]; human, 3 days",2
same,Total positive,"[9]; human, 3 days",2/4
"Nc1nnc(-c2cccc(Cl)c2Cl)c(N)n1 [L amot, Lamotrigine]",Grade II (number of skin explants with this histological grade),[3]; [13],1
same,Grade III (number of skin explants with this histological grade),[3]; [13],2
same,Grade IV (number of skin explants with this histological grade),[3]; [13],1
same,Total positive,[3]; Table 2,4/4
"CCOC(=O)c1ccc(N)cc1 [Bz, Benzocaine]",Total positive,[3]; Table 2,1/1
"O=S(=O)([O-])[O-].[Zn+2] [ZnSO4, Zinc Sulphate]",IFNγ Mean,[1],13.39
same,autologous T cell proliferation (level in words),[2],low
same,Grade I (number of skin explants with this histological grade),[9],2
same,Total positive,[9],2/4
same,LLNA Class,[4],Non sensitiser
"NC[C@@H]1O[C@H](O[C@H]2[C@@H](O)[C@H](O[C@@H]3[C@@H](O)[C@H](N)C[C@H](N)[C@H]3O[C@H]3O[C@H](CN)[C@@H](O)[C@H](O)[C@H]3N)O[C@@H]2CO)[C@H](N)[C@@H](O)[C@@H]1O [Neo, Neomycin]",Grade I (number of skin explants with this histological grade),[9],1
same,Total positive,[9],4/5
"N[C@@H](CCC(=O)O)C(=O)O [LGA, Glutamic Acid]",IFNγ Mean,[1]; Table 3,48.40
same,autologous T cell proliferation (level in words),[2]; [11],low
same,Grade I (number of skin explants with this histological grade),[3]; [12],2
same,Grade II (number of skin explants with this histological grade),[3]; [13],1
same,Total positive,[3]; Table 2,1/3
same,Skin Explant Result (grade observed),[3]; listed as LGA (glutamic Acid),Grade I; also recorded: Grade II
Tween 20,IFNγ Mean,[1]; Table 3,188.24
same,autologous T cell proliferation (level in words),[2]; [11],low
same,LLNA Class,[4],Non sensitiser
same,Grade I (number of skin explants with this histological grade),[3]; [12],2
same,Total positive,[3]; Table 2,0/2
same,Skin Explant Result (grade observed),[3],Grade I
